Measurements published in patent US10865191B2, “Heterocyclic compounds useful as modulators of TNF alpha” (BRISTOL-MYERS SQUIBB COMPANY, priority 2015, dated 2020).

Molecular target: TNFα (Homo sapiens, UniProt P01375)
Experiment: TNF induced HEK-Blue assay (NF-kB-driven secreted alkaline phosphatase reporter)
Assay type: cell-based
Details: TNF induced HEK-Blue assay IC50 value, TNFα 0.5 ng/mL, HEK-Blue-CD40L cells, 18 h
Summary of the method: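 HEK-Blue-CD40L cells (NF-kB-driven SEAP reporter), 20,000/well, added after 30 min pre-incubation of compound (0.004–25 μM final) with TNFα 0.5 ng/mL final at 37 °C; 18 h incubation. SEAP read with QUANTI-Blue at 620 nm; IC50 from 4-parameter logistic fit, normalized to unstimulated and stimulated DMSO controls.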

TNFα, sequence (P01375 77-233 limits assumed): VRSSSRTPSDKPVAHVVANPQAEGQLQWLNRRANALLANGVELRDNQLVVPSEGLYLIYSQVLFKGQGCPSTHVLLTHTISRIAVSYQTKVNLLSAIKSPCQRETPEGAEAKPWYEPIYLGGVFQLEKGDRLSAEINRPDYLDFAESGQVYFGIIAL

With `C[C@@H](Nc1c(Cl)cnc2ccc(-c3cnc(N4CCN(CC(N)=O)CC4)nc3)cc12)c1ccccc1F` [Example 90, (R)-2-(4-(5-(3-chloro-4-((1-(2-fluorophenyl)ethyl)amino)quinolin-6-yl)pyrimidin-2-yl)piperazin-1-yl)acetamide] as the molecule, how does the IC50 read?
Its IC50 is < 1 µM.

Same assay, conditions: TNFα 0.5 ng/mL, HEK-Blue-CD40L cells, 18 h; read-out: TNF induced HEK-Blue assay IC50 value

With `CC(Nc1c(Cl)cnc2cc(F)c(-c3cnc(C(C)(C)O)cn3)cc12)c1ccccc1F` (single isomer, unassigned) [Example 595, 2-(5-(3-chloro-7-fluoro-4-((1-(2-fluorophenyl)ethyl)amino)quinolin-6-yl)pyrazin-2-yl)propan-2-ol] as the molecule, how does the IC50 read?
The IC50 was < 1 µM.

How did the IC50 turn out when `C[C@@H](Nc1c(Cl)cnc2ccccc12)c1cc(-c2cnc(C(C)(C)O)nc2)ccc1F` [Example 469, (R)-2-(5-(3-(1-((3-chloroquinolin-4-yl)amino)ethyl)-4-fluorophenyl)pyrimidin-2-yl)propan-2-ol] was run?
The IC50 was 1 to 10 µM.

With `CC(Nc1c(Cl)cnc2cc(F)c(-c3cnc(C(C)(O)CO)nc3)cc12)c1ccccc1F` (stereo not shown) [Example 254, 2-(5-(3-chloro-7-fluoro-4-((1-(2-fluorophenyl)ethyl)amino)quinolin-6-yl)pyrimidin-2-yl)propane-1,2-diol] as the molecule, how does the IC50 read?
The IC50 was < 1 µM.

How did the IC50 turn out when `C=Cc1ccc(F)c([C@H](Nc2c(Cl)c(C)nc3ccc(-c4cnc(C(C)(C)O)nc4)cc23)C(F)F)c1` [Example 352, (S)-2-(5-(3-chloro-4-((2,2-difluoro-1-(2-fluoro-5-vinylphenyl)ethyl)amino)-2-methylquinolin-6-yl)pyrimidin-2-yl)propan-2-ol] was run?
The IC50 was < 1 µM.

How did the IC50 turn out when `Cc1ncccc1-c1ccc(F)c([C@@H](C)Nc2c(Cl)cnc3ccccc23)c1` [Example 475, (R)-3-chloro-N-(1-(2-fluoro-5-(2-methylpyridin-3-yl)phenyl)ethyl)quinolin-4-amine] was run?
The IC50 was 1 to 10 µM.

`C[C@@H](Nc1c(Cl)cnc2ccccc12)c1cc(-c2cnc(N(C)C)nc2)ccc1F` [Example 536, (R)-3-chloro-N-(1-(5-(2-(dimethylamino)pyrimidin-5-yl)-2-fluorophenyl)ethyl)quinolin-4-amine] was tested. Which IC50 did it give?
The IC50 was 1 to 10 µM.

Which IC50 does the source give for `CC(Nc1c(Cl)cnc2cc(F)c(-c3cnc(C(O)CO)nc3)cc12)c1ccccc1F` (single isomer, unassigned) [Example 597, 1-(5-(3-chloro-7-fluoro-4-((1-(2-fluorophenyl)ethyl)amino)quinolin-6-yl)pyrimidin-2-yl)ethane-1,2-diol] here?
Its IC50 is 1 to 10 µM.

For `CC(=O)NC1CCC(O)(c2ncc(-c3ccc4ncc(Cl)c(N[C@H](C)c5ccccc5F)c4c3)cn2)CC1` (stereo partly drawn) [Example 131, (R)—N-(4-(5-(3-chloro-4-((1-(2-fluorophenyl)ethyl)amino)quinolin-6-yl)pyrimidin-2-yl)-4-hydroxycyclohexyl)acetamide], which IC50 is on record?
Its IC50 is 1 to 10 µM.

Which IC50 does the source give for `C[C@@H](Nc1c(Cl)cnc2cccnc12)c1cc(-c2cncnc2)ccc1F` [Example 555, (R)-3-chloro-N-(1-(2-fluoro-5-(pyrimidin-5-yl)phenyl)ethyl)-1,5-naphthyridin-4-amine] here?
Its IC50 is < 1 µM.

`CC(C)(O)c1ncc(-c2nc3c(N[C@H](c4cc(C(=O)O)ccc4F)C(F)F)c(Cl)cnc3cc2F)cn1` [Example 485, (R)-3-(1-((3-chloro-7-fluoro-6-(2-(2-hydroxypropan-2-yl)pyrimidin-5-yl)-1,5-naphthyridin-4-yl)amino)-2,2-difluoroethyl)-4-fluorobenzoic acid] was tested. Which IC50 did it give?
The IC50 was 1 to 10 µM.

Which IC50 does the source give for `CC(Nc1c(Cl)cnc2ncc(-c3ccc(C(C)(C)O)cc3)cc12)c1ccccc1F` (racemic) [Example 231, 2-(4-(6-chloro-5-((1-(2-fluorophenyl)ethyl)amino)-1,8-naphthyridin-3-yl)phenyl)propan-2-ol] here?
The IC50 was 10 to 25 µM.

How did the IC50 turn out when `CC(C)(O)c1ncc(-c2ccc3ncc(Cl)c(CNc4ccccc4)c3c2)cn1` [Example 11, 2-(5-(3-chloro-4-((phenylamino)methyl)quinolin-6-yl)pyrimidin-2-yl)propan-2-ol] was run?
The IC50 was 10 to 25 µM.

`Fc1ccc(Br)cc1[C@H](Nc1c(Cl)cnc2ccccc12)C(F)F` [Example 509, (S)—N-(1-(5-bromo-2-fluorophenyl)-2,2-difluoroethyl)-3-chloroquinolin-4-amine] was tested. Which IC50 did it give?
The IC50 was 1 to 10 µM.

With `CN(C)CC(Nc1c(Cl)cnc2ccc(-c3cnc(C(C)(C)O)nc3)cc12)c1ccccc1F` (racemic) [Example 12, 2-(5-(3-chloro-4-((2-(dimethylamino)-1-(2-fluorophenyl)ethyl)amino)quinolin-6-yl)pyrimidin-2-yl) propan-2-ol] as the molecule, how does the IC50 read?
The IC50 was 1 to 10 µM.

How did the IC50 turn out when `CC(Nc1c(Cl)cnc2c(F)cc(-c3cnc(C(C)(C)O)nc3)cc12)c1cc(Br)ccc1F` (single isomer, unassigned) [Example 612, 2-(5-(4-((1-(5-bromo-2-fluorophenyl)ethyl)amino)-3-chloro-8-fluoroquinolin-6-yl)pyrimidin-2-yl)propan-2-ol] was run?
The IC50 was < 1 µM.

How did the IC50 turn out when `Cc1nc2ccc(-c3cnc(C(C)(C)O)nc3)cc2c(N[C@@H](c2cc(C(N)CO)ccc2F)C(F)F)c1Cl` (mixture of isomers) [Example 434, 2-(5-(4-(((1 S)-1-(5-(1-amino-2-hydroxyethyl)-2-fluorophenyl)-2,2-difluoroethyl)amino)-3-chloro-2-methylquinolin-6-yl)pyrimidin-2-yl)propan-2-ol] was run?
Its IC50 is < 1 µM.

Which IC50 does the source give for `C[C@@H](Nc1c(Cl)cnc2ccccc12)c1cc(-c2cccnc2)ccc1F` [Example 461, (R)-3-chloro-N-(1-(2-fluoro-5-(pyridin-3-yl)phenyl)ethyl)quinolin-4-amine] here?
The IC50 was < 1 µM.

`C[C@@H](Nc1c(Cl)cnc2cc(F)c(-c3cnc(N4CCN(CC(=O)NCC(=O)O)CC4)nc3)cc12)c1ccccc1F` [Example 304, (R)-(2-(4-(5-(3-chloro-7-fluoro-4-((1-(2-fluorophenyl)ethyl)amino)quinolin-6-yl)pyrimidin-2-yl)piperazin-1-yl)acetyl)glycine] was tested. Which IC50 did it give?
Its IC50 is < 1 µM.

How did the IC50 turn out when `C=CCc1ccc(F)c([C@@H](C)Nc2c(Cl)cnc3ccccc23)c1` [Example 452, (R)—N-(1-(5-allyl-2-fluorophenyl)ethyl)-3-chloroquinolin-4-amine] was run?
The IC50 was 1 to 10 µM.

Which IC50 does the source give for `OC[C@@H]1CN(c2ncc(-c3ccc4ncc(Cl)c(N[C@@H](c5ccccc5F)C(F)F)c4c3)cn2)CCO1` [Example 87, ((S)-4-(5-(3-chloro-4-(((S)-2,2-difluoro-1-(2-fluorophenyl)ethyl)amino)quinolin-6-yl)pyrimidin-2-yl)morpholin-2-yl)methanol] here?
Its IC50 is < 1 µM.

`CC(C)(O)c1ncc(-c2cc3c(NC4(c5ccccc5F)CC4)c(Cl)cnc3cc2F)cn1` [Example 278, 2-(5-(3-chloro-7-fluoro-4-((1-(2-fluorophenyl)cyclopropyl)amino)quinolin-6-yl)pyrimidin-2-yl)propan-2-ol] was tested. Which IC50 did it give?
Its IC50 is < 1 µM.

`COCC(C)(O)c1ncc(-c2cc3c(NC(C)c4ccccc4F)c(Cl)cnc3cc2F)cn1` (stereo not shown) [Example 292, 2-(5-(3-chloro-7-fluoro-4-((1-(2-fluorophenyl)ethyl)amino)quinolin-6-yl)pyrimidin-2-yl)-1-methoxypropan-2-ol] was tested. Which IC50 did it give?
The IC50 was < 1 µM.

`C[C@@H](Nc1c(Cl)cnc2ccc(-c3ccc(CNC(N)=O)cc3)cc12)c1ccccc1F` [Example 569, (R)-1-(4-(3-chloro-4-((1-(2-fluorophenyl)ethyl)amino)quinolin-6-yl)benzyl)urea] was tested. Which IC50 did it give?
Its IC50 is < 1 µM.

With `C[C@@H](Nc1c(Cl)cnc2ccccc12)c1cc(-c2cncc(C#N)c2)ccc1F` [Example 541, (R)-5-(3-(1-((3-chloroquinolin-4-yl)amino)ethyl)-4-fluorophenyl)nicotinonitrile] as the molecule, how does the IC50 read?
The IC50 was 1 to 10 µM.
